Test results as given in patent publication US8613928B2, “Immunizing composition and method for inducing an immune response against the β-secretase cleavage site of amyloid precursor protein” (Ramot at Tel-Aviv University Ltd., priority 2002, dated 2013).
No end group written: not given here.

Columns and labels:
[1] = system: amyloid anti-aggregating antibody; details: Frenkel et al. 1998, ELISA, read-out: IC50, competitive inhibition, anti-aggregating antibody*; cited from earlier work
[2] = system: serum antibody raised against f88-EFRH; details: ELISA, read-out: IC50, competitive inhibition, MICE SERUM; cited from earlier work
Balb/c mice = assay: Immunization of Balb/c mice with MAP conjugated peptides, IgG titer by ELISA; type: in vivo; details: injection every two weeks with Freund's adjuvant, compared among 3 MAP peptides, FIG. 3
Method: 3 groups of Balb/c mice were injected with 3 different MAP (octa-branched) conjugated peptides: ISEVKMDA (residues 1-8 of SEQ ID NO:1, where residue 6 is Met), VKMDAEFRH (SEQ ID NO:5) and ISEVKLDA (residues 1-8 of SEQ ID NO:1, where residue 6 is Leu). The stock solution (2 mg/ml) was prepared as follows: 1000 μl of double distilled water (DDW), 665 μl of Freund's adjuvant (Complete Freund's adjuvant on first injection and Incomplete Freund's adjuvant on subsequent injections) and 335 μl of peptide stock solution. 300 μl of the vaccination solution (immunizing composition) was injected into each mouse every two weeks after initial injection.
96-well ELISA. plates were coated with 50 μl/well peptide stock solution at dilution of 1:500 in coating buffer (0.1M Na2CO3, pH 9.6) and incubated overnight at 4° C. The plates were washed with 2×PBS (0.05% TWEEN) and 2×PBS, blocked with 3% milk/PBS 180 μl/well and incubated for 1.5 hr at 37° C. Serum dilutions in 1% milk/PBS 50 μl/well were incubated for 1 hr at 37° C., then washed again with 50 μl/well α-mouse-IgG (H+L)HRP conjugated with dilution of 1:5000 in 1% milk/PBS incubated for 1 hr at 37° C. Additional washings contained PBS (0.05% TWEEN) and finally PBS. Reaction was done with 50 μl/well of 15 ml 0.05M citrate buffer with 30 mg OPD and 5 μl of 30% H2O2. […]

| Substance | IC50 [1] | IC50 [2] | immune response after immunization (Balb/c mice) |
| --- | --- | --- | --- |
| Aβ(1-40): full length Aβ-peptide (1-40) | 0.8 µM | 3 µM |  |
| DAEFRH [residues 1-6 of Aβ] | 0.8 µM | 3 µM |  |
| DAEFRHD [residues 1-7 of Aβ] | 0.9 µM | 5 µM |  |
| DAEFRHDSG [residues 1-9 of Aβ] | 1 µM | 5 µM |  |
| EFRH [residues 3-6 of Aβ] | 3 µM | 6 µM |  |
| FRH (Amyloid-beta protein 40; UniProt P05067 675-677, looked up, fragment) [residues 4-6 of Aβ] | 3000 µM | ~1000 µM |  |
| MAP-ISEVKLDA: octavalent multiple antigenic peptide with ISEVKLDA (residues 1-8 of SEQ ID NO:1, residue 6 Leu), Swedish mutation β-secretase cleavage site epitope (also: octavalent multiple antigenic peptide on MAP core; listed as Homo sapiens) |  |  | highest immune response |
